Measured values from publication PMC5021161 (Environmental and Molecular Mutagenesis, 2016).
Where two headings read alike, the source gives them in different places.

What was measured:
TK6 cells [1] = details: 2% Aroclor S9, 4 hr + 20 hr recovery
CDKN1A = format: cell-based, human; details: 2% Aroclor S9, 4 hr + 3-4 hr recovery
[2] = test system: TGx‐28.65 biomarker genes; details: for Dendogram TGx‐28.65 / NSC TGx‐28.65 / PCA TGx‐28.65: 2% Aroclor S9, 4 hr + 3-4 hr recovery
TK6 cells [3] = details: for % MN: 2% Aroclor S9, 4 hr + 20 hr recovery
ATF3 = format: cell-based, human; details: 2% Aroclor S9, 4 hr + 3-4 hr recovery
GADD45A = format: cell-based, human; details: 2% Aroclor S9, 4 hr + 3-4 hr recovery
[4] = test system: ATF3, CDKN1A, and GADD45A; assay: RT‐qPCR of the three stress response genes; format: cell-based, human; details: 2% Aroclor‐induced S9
TK6 cells [5] = details: for % Relative Survival: 2% Aroclor S9, 4 hr + 20 hr recovery

## CN(C)N=O [Dimethylnitrosamine]
TK6 cells [1]; 1 mM
  % Apoptotic cells: 8.47%
TK6 cells [1]; 5 mM
  % Apoptotic cells: 12.27%
TK6 cells [1]; 10 mM
  % Apoptotic cells: 30.63%
CDKN1A; 1 mM
  CDKN1A fold change vs vehicle control (+S9): 1.0 fold change
CDKN1A; 5 mM
  CDKN1A fold change vs vehicle control (+S9): 1.3 fold change
CDKN1A; 10 mM
  CDKN1A fold change vs vehicle control (+S9): 1.2 fold change
[2]; 1 mM
  Dendogram TGx‐28.65: −
  NSC TGx‐28.65: −
  PCA TGx‐28.65: −
[2]; 5 mM
  Dendogram TGx‐28.65: +
  NSC TGx‐28.65: +
  PCA TGx‐28.65: +
[2]; 10 mM
  Dendogram TGx‐28.65: +
  NSC TGx‐28.65: +
  PCA TGx‐28.65: +
[2]; 10% Aroclor‐induced S9, lowest concentration (1 mM)
  hierarchical cluster analysis with TGx‐28.65: on the same branch as non‐genotoxic agents
[2]; low concentrations
  classification using TGx‐28.65: non‐genotoxic
[2]; mid and high concentrations
  classification using TGx‐28.65: genotoxic
TK6 cells [3]
  change in % MN relative to DMSO controls: Significant increases
TK6 cells [3]; 1 mM
  % MN: 1.15%
TK6 cells [3]; 5 mM
  % MN: 2.29%
TK6 cells [3]; 10 mM
  % MN: 2.80%
TK6 cells [3]; for at least one concentration, definitive study
  statistically significant % MN increase relative to controls: over twofold
ATF3; 1 mM
  ATF3 fold change vs vehicle control (+S9): 0.8 fold change
ATF3; 5 mM
  ATF3 fold change vs vehicle control (+S9): 0.8 fold change
ATF3; 10 mM
  ATF3 fold change vs vehicle control (+S9): 0.8 fold change
GADD45A; 1 mM
  GADD45A fold change vs vehicle control (+S9): 1.0 fold change
GADD45A; 5 mM
  GADD45A fold change vs vehicle control (+S9): 1.2 fold change
GADD45A; 10 mM
  GADD45A fold change vs vehicle control (+S9): 1.5 fold change
[4]
  induction of genes in the stress response panel: did not induce any of the genes
TK6 cells [5]
  change in RS relative to DMSO controls: declines
TK6 cells [5]; 1 mM
  % Relative Survival: 76.40%
TK6 cells [5]; 5 mM
  % Relative Survival: 72.92%
TK6 cells [5]; 10 mM
  % Relative Survival: 45.65%
